Data reported in ChEMBL document CHEMBL3603732, “Synthesis, biological evaluation and molecular modeling of new tetrahydroacridine derivatives as potential multifunctional agents for the treatment of Alzheimer's disease” (Bioorg Med Chem, 2015).

Key:
A549 = experiment: Cytotoxic activity against human A549 cells assessed as reduction in cell viability incubated for 48 hrs by WST1 assay; format: cell-based; conditions: A549, 48 h
acetylcholinesterase [1] = experiment: Selectivity index, ratio of IC50 for cytotoxic activity against human A549 cells to IC50 for acetylcholinesterase in human erythrocytes; format: toxicity, cell-based; conditions: read-out: Ratio IC50
Acetylcholinesterase [2] = biological target: T1, Acetylcholinesterase (Homo sapiens, UniProt P22303); experiment: biochemical
T1 sequence (P22303 whole entry): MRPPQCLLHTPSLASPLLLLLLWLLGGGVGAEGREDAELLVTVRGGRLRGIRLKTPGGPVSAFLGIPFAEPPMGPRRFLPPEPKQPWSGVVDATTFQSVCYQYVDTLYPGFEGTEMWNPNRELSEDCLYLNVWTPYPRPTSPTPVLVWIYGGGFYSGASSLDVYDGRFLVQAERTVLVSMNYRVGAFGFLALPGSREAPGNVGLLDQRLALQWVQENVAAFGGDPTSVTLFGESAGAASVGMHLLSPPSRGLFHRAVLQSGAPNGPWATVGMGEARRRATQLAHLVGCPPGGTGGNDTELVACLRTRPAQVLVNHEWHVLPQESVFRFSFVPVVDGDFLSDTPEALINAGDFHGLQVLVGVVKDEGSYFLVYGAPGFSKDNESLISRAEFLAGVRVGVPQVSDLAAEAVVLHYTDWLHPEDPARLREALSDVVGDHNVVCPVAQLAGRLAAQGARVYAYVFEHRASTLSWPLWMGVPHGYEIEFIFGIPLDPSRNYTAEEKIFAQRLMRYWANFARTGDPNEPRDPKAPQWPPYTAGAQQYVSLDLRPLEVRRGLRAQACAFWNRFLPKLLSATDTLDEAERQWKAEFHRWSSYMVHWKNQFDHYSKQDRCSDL
Description: Inhibition of acetylcholinesterase in human erythrocytes using acetylthiocholine iodide substrate by spectrophotometric Ellman's method

Acetylcholinesterase [3] = biological target: T1, Acetylcholinesterase; experiment: Inhibition of AChE (unknown origin) assessed as enzyme-mediated Amyloid beta peptide (1 to 42) aggregation incubated for 5 hrs by thioflavin-T based fluorometric assay
[4] = Cytotoxic activity against human A549 cells assessed as cell viability at 100 nM incubated for 48 hrs by WST1 assay; format: cell-based; conditions: read-out: Activity
Acetylcholinesterase [5] = biological target: Acetylcholinesterase (Electrophorus electricus, UniProt O42275)
Chain of Acetylcholinesterase (Electrophorus electricus, UniProt O42275) (O42275 whole entry): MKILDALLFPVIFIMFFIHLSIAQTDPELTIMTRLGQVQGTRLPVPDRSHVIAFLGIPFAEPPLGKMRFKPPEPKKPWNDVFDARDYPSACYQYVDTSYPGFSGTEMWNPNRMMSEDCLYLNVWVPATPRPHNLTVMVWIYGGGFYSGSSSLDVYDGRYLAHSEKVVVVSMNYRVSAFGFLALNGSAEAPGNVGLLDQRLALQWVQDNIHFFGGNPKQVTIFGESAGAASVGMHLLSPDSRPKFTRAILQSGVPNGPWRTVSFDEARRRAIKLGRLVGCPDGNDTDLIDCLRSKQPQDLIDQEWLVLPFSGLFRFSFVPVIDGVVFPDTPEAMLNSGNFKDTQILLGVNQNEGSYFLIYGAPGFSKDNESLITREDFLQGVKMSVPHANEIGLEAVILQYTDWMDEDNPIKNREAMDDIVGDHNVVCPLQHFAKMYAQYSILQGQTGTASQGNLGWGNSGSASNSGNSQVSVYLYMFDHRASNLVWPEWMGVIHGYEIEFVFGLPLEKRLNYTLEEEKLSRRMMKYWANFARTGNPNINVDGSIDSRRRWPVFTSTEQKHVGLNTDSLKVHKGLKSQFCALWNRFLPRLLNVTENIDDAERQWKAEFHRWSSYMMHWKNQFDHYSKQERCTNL
Description: Inhibition of electric eel AChE using ATC iodide substrate by Ellman's assay

Cholinesterase = Cholinesterase (Equus caballus, UniProt P81908)
Chain of Cholinesterase (P81908 whole entry): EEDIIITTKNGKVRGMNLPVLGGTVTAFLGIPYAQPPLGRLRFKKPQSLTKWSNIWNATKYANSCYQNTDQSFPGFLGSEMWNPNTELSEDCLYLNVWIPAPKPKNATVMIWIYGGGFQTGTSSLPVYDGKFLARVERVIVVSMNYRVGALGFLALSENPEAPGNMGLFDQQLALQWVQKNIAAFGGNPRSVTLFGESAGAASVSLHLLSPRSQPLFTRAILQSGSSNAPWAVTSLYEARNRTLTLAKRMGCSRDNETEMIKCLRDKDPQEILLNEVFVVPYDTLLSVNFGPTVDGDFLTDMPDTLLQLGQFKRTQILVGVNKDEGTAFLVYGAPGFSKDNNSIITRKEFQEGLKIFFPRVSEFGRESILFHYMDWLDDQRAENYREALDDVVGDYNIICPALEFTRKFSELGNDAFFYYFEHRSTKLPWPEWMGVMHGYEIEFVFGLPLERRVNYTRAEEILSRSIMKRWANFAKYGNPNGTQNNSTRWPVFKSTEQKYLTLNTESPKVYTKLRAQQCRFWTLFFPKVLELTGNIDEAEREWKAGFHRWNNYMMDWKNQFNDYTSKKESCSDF
Description: Inhibition of equine serum BChE using ATC iodide substrate by Ellman's assay

Row | Structure (SMILES) | IC50 (A549) [µM] | selectivity ratio (acetylcholinesterase [1]) | IC50 (Acetylcholinesterase [2]) [nM] | IC50 (Acetylcholinesterase [3]) [µM] | viability at 48 h, 0.1 µM [4] [%] | IC50 (Acetylcholinesterase [5]) [nM] | IC50 (Cholinesterase) [nM]
1 | CN(C)c1ccc(C(=O)NCCNc2c3c(nc4ccccc24)CCCC3)cc1 | 39.1 | 275 | 142 | 12.1 | 93.7 | 0.4 | 0.5
2 | CN(C)c1ccc(C(=O)NCCCNc2c3c(nc4ccccc24)CCCC3)cc1 | 46.3 | 2500 | 19 |  | 91.3 | 200 | 73.3
3 | CN(C)c1ccc(C(=O)NCCCCNc2c3c(nc4ccccc24)CCCC3)cc1 |  |  | 295 |  |  | 200 | 7
4 | CN(C)c1ccc(C(=O)NCCCCCNc2c3c(nc4ccccc24)CCCC3)cc1 |  |  | 357 |  |  | 86.7 | 3.7
5 | CN(C)c1ccc(C(=O)NCCCCCCNc2c3c(nc4ccccc24)CCCC3)cc1 |  |  | 64 |  |  | 0.6 | 1.1
6 | CN(C)c1ccc(C(=O)NCCCCCCCNc2c3c(nc4ccccc24)CCCC3)cc1 |  |  | 75 |  |  | 167 | 210
7 | CN(C)c1ccc(C(=O)NCCCCCCCCNc2c3c(nc4ccccc24)CCCC3)cc1 |  |  | 77 |  |  | 0.5 | 0.7
8 | CN(C)c1ccc(C(=O)NCCCCCCCCCNc2c3c(nc4ccccc24)CCCC3)cc1 |  |  | 125 |  |  | 0.5 | 0.7
